Experimental findings from patent publication EP4813381A1, “PHARMACEUTICAL USE OF GUAIANE SESQUITERPENE DERIVATIVE” (Nanjing University Of Chinese Medicine, priority 2023, dated 2025) are described below.

This experiment has as its system MDSCs and T cells. The experiment can be described thus: T cell proliferation in a co-culture model of MDSCs and T cells (flow cytometry). The class given is cell-based, mice. The following applies: MDSCs treated with 1 µM compound for 12 h, 48 h co-culture with T cells (1:1), compared to the control group. How it is done: Under sterile conditions, the tibia was removed, both ends of the bone were cut, and bone marrow was repeatedly flushed into a 15 mL centrifuge tube using a 1 mL syringe filled with culture medium. Centrifuge at 1600 rpm for 5 min to collect bone marrow cells. […] The spleen cell suspension was then transferred into a 15 mL centrifuge tube. Centrifuge at 1600 rpm for 5 min to collect T cells. Wash twice with 1×PBS. Resuspend the centrifuged T cells in 1 mL PBS and add 1 mL of 10 µM CFDA-SE solution. Incubate at room temperature for 8 min. […] After drug administration, collect MDSC cells into centrifuge tubes. Centrifuge at 1600 rpm for 5 min, remove supernatant, resuspend in 1 mL fresh medium, and plate. Add 1 mL stimulated activated T cells (1:1 ratio) for 48 h co-culture. After incubation, collect cells into centrifuge tubes, wash twice with PBS, and incubate with Fc antibody at room temperature in the dark for 10 min. Add CD3-labeled flow cytometry antibody and incubate at 4 °C in the dark for 30 min. After incubation, wash cells with PBS, resuspend in 300 µL PBS, and analyze by flow cytometry.
For the molecule `C=C1C(=O)O[C@H]2[C@H]1CCC(C)=C1CC[C@@](C)(OC(=O)NCCCC)[C@@H]12` [compound 67], the “T-cell proliferation rate (%)” value is “++ (T-cell proliferation rate within the 20-40% range compared to the control group)”.
With `CC(C)(C)OC(=O)N1CCN(C[C@@H]2C(=O)O[C@H]3[C@H]2CC[C@@]2(C)C[C@]24CC[C@@](C)(O)[C@H]34)CC1` [compound 44] the entry was “+ (T-cell proliferation rate within the 0-20% range compared to the control group)”; with `C=C1C(=O)O[C@H]2[C@H]1CCC(C)=C1CC[C@@](C)(OC(=O)NCCN3CCN(C)CC3)[C@@H]12` [compound 95], “++ (T-cell proliferation rate within the 20-40% range compared to the control group)”.
Consider `C=C1C(=O)O[C@H]2[C@H]1CCC(C)=C1CC[C@@](C)(OC(=O)N3CCN(C)CC3)[C@@H]12` [compound 85], for which the “T-cell proliferation rate (%)” value is reported as “+ (T-cell proliferation rate within the 0-20% range compared to the control group)”.
As to `C=C1C(=O)O[C@H]2[C@H]1CCC(C)=C1CC[C@@](C)(OC(=O)NCCO)[C@@H]12` [compound 71], the “T-cell proliferation rate (%)” value was “+++ (T-cell proliferation rate >40% compared to the control group)”.
The result for `CC1=C2CC[C@@](C)(OC(=O)N3CCCCC3)[C@@H]2[C@H]2OC(=O)[C@@H](CN(C)C)[C@@H]2CC1` [compound 97] reads “+ (T-cell proliferation rate within the 0-20% range compared to the control group)”; that for `CN(C)C[C@@H]1C(=O)O[C@H]2[C@H]1CC[C@@]1(C)C[C@]13C[C@@H](O)[C@@](C)(O)[C@H]23` [compound 60], “+ (T-cell proliferation rate within the 0-20% range compared to the control group)”; that for `C=C1C(=O)O[C@H]2[C@H]1CCC(C)=C1CC[C@@](C)(OC(=O)NCC(F)F)[C@@H]12` [compound 89], “++ (T-cell proliferation rate within the 20-40% range compared to the control group)”.
The result for `C=C1C(=O)O[C@H]2[C@H]1CCC(C)=C1CC[C@@](C)(OC(=O)N3CCN(CC)CC3)[C@@H]12` [compound 86] reads “++ (T-cell proliferation rate within the 20-40% range compared to the control group)”; that for `C=C1C(=O)O[C@H]2[C@H]1CCC(C)=C1CC[C@@](C)(OC(=O)NCC)[C@@H]12` [compound 65], “+ (T-cell proliferation rate within the 0-20% range compared to the control group)”.
With `C=C1C(=O)O[C@H]2[C@H]1CCC(C)=C1CC[C@@](C)(OC(=O)NCCC)[C@@H]12` [compound 66] the entry was “+ (T-cell proliferation rate within the 0-20% range compared to the control group)”; with `C=C1C(=O)O[C@H]2[C@H]1CCC(C)=C1CC[C@@](C)(OC(=O)N(CC)CCC)[C@@H]12` [compound 91], “++ (T-cell proliferation rate within the 20-40% range compared to the control group)”.
Consider `C=C1C(=O)O[C@H]2[C@H]1CCC(C)=C1CC[C@@](C)(OC(=O)NCc3ccccc3)[C@@H]12` [compound 79], for which the “T-cell proliferation rate (%)” value was “++ (T-cell proliferation rate within the 20-40% range compared to the control group)”.
Consider `C=C1C(=O)O[C@H]2[C@H]1CCC(C)=C1CC[C@@](C)(OC(=O)N3CCC(C)CC3)[C@@H]12` [compound 84], for which the “T-cell proliferation rate (%)” value is on record as “++ (T-cell proliferation rate within the 20-40% range compared to the control group)”.
For `C=C1C(=O)O[C@H]2[C@H]1CCC(C)=C1CC[C@@](C)(OC(=O)N(C)C)[C@@H]12` [compound 80], the “T-cell proliferation rate (%)” value is on record as “++ (T-cell proliferation rate within the 20-40% range compared to the control group)”.
As to `C=C1C(=O)O[C@H]2[C@H]1CCC(C)=C1CC[C@@](C)(OC(=O)NCCCN3CCOCC3)[C@@H]12` [compound 92], the “T-cell proliferation rate (%)” value was “++ (T-cell proliferation rate within the 20-40% range compared to the control group)”.
`CN(C)C[C@@H]1C(=O)O[C@H]2[C@H]1CC[C@@]1(C)C[C@]13CC[C@@](C)(O)[C@H]23` [compound 2]: the “T-cell proliferation rate (%)” value is “++ (T-cell proliferation rate within the 20-40% range compared to the control group)”.
As to `C=C1C(=O)O[C@H]2[C@H]1CCC(C)=C1CC[C@@](C)(OC(=O)NCC(C)C)[C@@H]12` [compound 88], the “T-cell proliferation rate (%)” value is given as “++ (T-cell proliferation rate within the 20-40% range compared to the control group)”.
With `CC1=C2CC[C@@](C)(OC(=O)N3CCCCC3)[C@@H]2[C@H]2OC(=O)[C@@H](CN3CCCC3)[C@@H]2CC1` [compound 96] the entry was “+ (T-cell proliferation rate within the 0-20% range compared to the control group)”.
With `C=C1C(=O)O[C@H]2[C@H]1CCC(C)=C1CC[C@@](C)(OC(=O)NCCCN3CCN(C)CC3)[C@@H]12` [compound 93] the entry was “++ (T-cell proliferation rate within the 20-40% range compared to the control group)”.
For the molecule `C=C1C(=O)O[C@H]2[C@H]1CCC(C)=C1CC[C@@](C)(OC(=O)NC)[C@@H]12` [compound 64], the “T-cell proliferation rate (%)” value is reported as “+++ (T-cell proliferation rate >40% compared to the control group)”.
For the molecule `CC1CCN(C[C@@H]2C(=O)O[C@H]3[C@H]2CC[C@@]2(C)C[C@]24CC[C@@](C)(O)[C@H]34)CC1` [compound 43], the “T-cell proliferation rate (%)” value is given as “+ (T-cell proliferation rate within the 0-20% range compared to the control group)”.
As for `CC1=C2[C@H]3OC(=O)[C@@H](CN(C)C)[C@@H]3CC[C@@]3(C)C[C@@]23CC1` [compound 62], the “T-cell proliferation rate (%)” value is given as “+ (T-cell proliferation rate within the 0-20% range compared to the control group)”.
Consider `C=C1C(=O)O[C@H]2[C@H]1CCC(C)=C1CC[C@@](C)(OC(=O)NC(CC)CC)[C@@H]12` [compound 69], for which the “T-cell proliferation rate (%)” value is reported as “++ (T-cell proliferation rate within the 20-40% range compared to the control group)”.
In the case of `C=C1C(=O)O[C@H]2[C@H]1CCC(C)=C1CC[C@@](C)(OC(=O)NC3CC3)[C@@H]12` [compound 70], the “T-cell proliferation rate (%)” value is “+ (T-cell proliferation rate within the 0-20% range compared to the control group)”.
As for `C=C1C(=O)O[C@H]2[C@H]1CCC(C)=C1CC[C@@](C)(OC(=O)N(C)CCC)[C@@H]12` [compound 90], the “T-cell proliferation rate (%)” value is “++ (T-cell proliferation rate within the 20-40% range compared to the control group)”.
Turning to `C=C1C(=O)O[C@H]2[C@H]1CCC(C)=C1CC[C@@](C)(OC(=O)NCCOC)[C@@H]12` [compound 74], the “T-cell proliferation rate (%)” value is reported as “+++ (T-cell proliferation rate >40% compared to the control group)”.
With `C=C1C(=O)O[C@H]2[C@H]1CCC(C)=C1CC[C@@](C)(OC(=O)NCCCOC)[C@@H]12` [compound 75] the entry was “++ (T-cell proliferation rate within the 20-40% range compared to the control group)”.
